According to the supplement of paper PMC10307832:

Tests used:
Test in all cases: relative viability (nuclei count vs DMSO), 5 days (fraction); higher = more cells survive
RERF-LC-KJ = tested on: RERF-LC-KJ
Outline: (§1)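 Lung cancer cell lines, seeded in 1536-well plates, were treated the following day by pin tool with a single drug or with five library-drug doses (not always all listed) in √10 steps on top of a fixed anchor-drug dose. Cells were fixed and nuclei stained in one step after 5 days, and nuclei were counted. Relative viability is the nuclei count for treated wells divided by that for vehicle wells, reported as medians of duplicate plates.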

NCI-H727 = tested on: NCI-H727
Outline: as §1

NCI-H520 = tested on: NCI-H520
Outline: as §1

NCI-H441 = tested on: NCI-H441
Outline: as §1

NCI-H2347 = tested on: NCI-H2347
Outline: as §1

NCI-H1651 = tested on: NCI-H1651
Outline: as §1

NCI-H1755 = tested on: NCI-H1755
Outline: as §1

NCI-H650 = tested on: NCI-H650
Outline: as §1

NCI-H322M = tested on: NCI-H322M
Outline: as §1

PC-14 = tested on: PC-14
Outline: as §1

SW 900 = tested on: SW 900
Outline: as §1

NCI-H661 = tested on: NCI-H661
Outline: as §1

NCI-H3122 = tested on: NCI-H3122
Outline: as §1

NCI-H596 = tested on: NCI-H596
Outline: as §1

LXF-289 = tested on: LXF-289
Outline: as §1

SK-MES-1 = tested on: SK-MES-1
Outline: as §1

NCI-H1355 = tested on: NCI-H1355
Outline: as §1

NCI-H2170 = tested on: NCI-H2170
Outline: as §1

NCI-H1915 = tested on: NCI-H1915
Outline: as §1

NCI-H460 = tested on: NCI-H460
Outline: as §1

LCLC-103H = tested on: LCLC-103H
Outline: as §1

NCI-H522 = tested on: NCI-H522
Outline: as §1

NCI-H1792 = tested on: NCI-H1792
Outline: as §1

CC(C)Oc1cc(Nc2nc(N[C@@H](C)c3ccc(F)cn3)ncc2Cl)n[nH]1 [AZ23] + O=C(CCCCCCC(=O)Nc1ccccc1)NO [Vorinostat] (partner 1 µM)
relative viability (RERF-LC-KJ; first compound 0.01 µM): 0.711 | relative viability (RERF-LC-KJ; first compound 0.03162 µM): 0.704 | relative viability (RERF-LC-KJ; first compound 0.3162 µM): 0.675 | relative viability (NCI-H727; first compound 0.01 µM): 1.07 | relative viability (NCI-H727; first compound 0.03162 µM): 1.13 | relative viability (NCI-H727; first compound 0.3162 µM): 1.37 | relative viability (NCI-H520; first compound 0.01 µM): 0.794 | relative viability (NCI-H520; first compound 0.03162 µM): 0.754 | relative viability (NCI-H520; first compound 0.3162 µM): 0.609 | relative viability (NCI-H441; first compound 0.01 µM): 0.825 | relative viability (NCI-H441; first compound 0.03162 µM): 0.842 | relative viability (NCI-H441; first compound 0.3162 µM): 0.738 | relative viability (NCI-H2347; first compound 0.01 µM): 0.446 | relative viability (NCI-H2347; first compound 0.03162 µM): 0.631 | relative viability (NCI-H2347; first compound 0.3162 µM): 0.587 | relative viability (NCI-H1651; first compound 0.01 µM): 0.524 | relative viability (NCI-H1651; first compound 0.03162 µM): 0.545 | relative viability (NCI-H1651; first compound 0.3162 µM): 0.584 | relative viability (NCI-H1755; first compound 0.01 µM): 0.854 | relative viability (NCI-H1755; first compound 0.03162 µM): 0.714 | relative viability (NCI-H1755; first compound 0.3162 µM): 0.805 | relative viability (NCI-H650; first compound 0.01 µM): 0.411 | relative viability (NCI-H650; first compound 0.03162 µM): 0.583 | relative viability (NCI-H650; first compound 0.3162 µM): 0.452 | relative viability (NCI-H322M; first compound 0.01 µM): 0.674 | relative viability (NCI-H322M; first compound 0.03162 µM): 0.881 | relative viability (NCI-H322M; first compound 0.3162 µM): 0.93 | relative viability (PC-14; first compound 0.01 µM): 0.284 | relative viability (PC-14; first compound 0.03162 µM): 0.874 | relative viability (PC-14; first compound 0.3162 µM): 0.905 | relative viability (SW 900; first compound 0.01 µM): 0.367 | relative viability (SW 900; first compound 0.3162 µM): 0.544 | relative viability (NCI-H661; first compound 0.01 µM): 0.814 | relative viability (NCI-H661; first compound 0.03162 µM): 0.769 | relative viability (NCI-H661; first compound 0.3162 µM): 0.87 | relative viability (NCI-H3122; first compound 0.01 µM): 1.45 | relative viability (NCI-H3122; first compound 0.03162 µM): 1.05 | relative viability (NCI-H3122; first compound 0.3162 µM): 1.03 | relative viability (NCI-H596; first compound 0.01 µM): 0.523 | relative viability (NCI-H596; first compound 0.03162 µM): 0.622 | relative viability (NCI-H596; first compound 0.3162 µM): 0.582 | relative viability (LXF-289; first compound 0.01 µM): 0.949 | relative viability (LXF-289; first compound 0.03162 µM): 0.776 | relative viability (LXF-289; first compound 0.3162 µM): 0.737 | relative viability (SK-MES-1; first compound 0.03162 µM): 1.22 | relative viability (SK-MES-1; first compound 0.3162 µM): 1.2 | relative viability (NCI-H1355; first compound 0.01 µM): 0.672 | relative viability (NCI-H1355; first compound 0.03162 µM): 0.715 | relative viability (NCI-H1355; first compound 0.3162 µM): 0.633 | relative viability (NCI-H2170; first compound 0.01 µM): 0.958 | relative viability (NCI-H2170; first compound 0.03162 µM): 0.937 | relative viability (NCI-H2170; first compound 0.3162 µM): 0.906 | relative viability (NCI-H1915; first compound 0.01 µM): 0.575 | relative viability (NCI-H1915; first compound 0.03162 µM): 0.526 | relative viability (NCI-H1915; first compound 0.3162 µM): 0.58 | relative viability (NCI-H460; first compound 0.01 µM): 0.252 | relative viability (NCI-H460; first compound 0.03162 µM): 1.06 | relative viability (NCI-H460; first compound 0.3162 µM): 0.774 | relative viability (LCLC-103H; first compound 0.01 µM): 0.76 | relative viability (LCLC-103H; first compound 0.03162 µM): 0.85 | relative viability (LCLC-103H; first compound 0.3162 µM): 0.769 | relative viability (NCI-H522; first compound 0.01 µM): 0.939 | relative viability (NCI-H522; first compound 0.03162 µM): 0.954 | relative viability (NCI-H522; first compound 0.3162 µM): 0.934

C[C@@H]1CN(CC(=O)Nc2ccc3c(c2)Cc2cccc(-c4cc(=O)cc(N5CCOCC5)o4)c2S3)C[C@H](C)O1 + NC(=O)Nc1cc(-c2cccc(F)c2)sc1C(=O)N[C@H]1CCCNC1 [AZD7762] (partner 0.2 µM)
relative viability (RERF-LC-KJ; first compound 0.04 µM): 0.941 | relative viability (RERF-LC-KJ; first compound 0.1265 µM): 0.955 | relative viability (RERF-LC-KJ; first compound 4 µM): 0.929 | relative viability (NCI-H727; first compound 0.04 µM): 0.525 | relative viability (NCI-H727; first compound 0.1265 µM): 0.625 | relative viability (NCI-H727; first compound 0.4 µM): 0.501 | relative viability (NCI-H727; first compound 4 µM): 0.7 | relative viability (NCI-H441; first compound 0.04 µM): 1.28 | relative viability (NCI-H441; first compound 0.1265 µM): 1.16 | relative viability (NCI-H441; first compound 0.4 µM): 1.02 | relative viability (NCI-H441; first compound 4 µM): 1.01 | relative viability (NCI-H2347; first compound 0.04 µM): 0.811 | relative viability (NCI-H2347; first compound 0.1265 µM): 0.913 | relative viability (NCI-H2347; first compound 0.4 µM): 0.625 | relative viability (NCI-H2347; first compound 4 µM): 0.611 | relative viability (NCI-H1792; first compound 0.04 µM): 0.662 | relative viability (NCI-H1792; first compound 0.1265 µM): 0.638 | relative viability (NCI-H1792; first compound 0.4 µM): 0.564 | relative viability (NCI-H1792; first compound 4 µM): 0.314 | relative viability (NCI-H1651; first compound 0.04 µM): 0.428 | relative viability (NCI-H1651; first compound 0.1265 µM): 0.405 | relative viability (NCI-H1651; first compound 0.4 µM): 0.464 | relative viability (NCI-H1651; first compound 4 µM): 0.38 | relative viability (NCI-H1755; first compound 0.04 µM): 0.422 | relative viability (NCI-H1755; first compound 0.1265 µM): 0.44 | relative viability (NCI-H1755; first compound 0.4 µM): 0.494 | relative viability (NCI-H1755; first compound 4 µM): 0.445 | relative viability (NCI-H650; first compound 0.04 µM): 0.981 | relative viability (NCI-H650; first compound 0.1265 µM): 0.853 | relative viability (NCI-H650; first compound 0.4 µM): 1.21 | relative viability (NCI-H650; first compound 4 µM): 0.895 | relative viability (NCI-H322M; first compound 0.04 µM): 0.527 | relative viability (NCI-H322M; first compound 0.1265 µM): 0.546 | relative viability (NCI-H322M; first compound 0.4 µM): 0.702 | relative viability (NCI-H322M; first compound 4 µM): 0.56 | relative viability (PC-14; first compound 0.04 µM): 0.289 | relative viability (PC-14; first compound 0.1265 µM): 0.308 | relative viability (PC-14; first compound 0.4 µM): 0.32 | relative viability (PC-14; first compound 4 µM): 0.276 | relative viability (SW 900; first compound 0.04 µM): 0.629 | relative viability (SW 900; first compound 0.1265 µM): 0.669 | relative viability (SW 900; first compound 0.4 µM): 0.506 | relative viability (SW 900; first compound 4 µM): 0.281 | relative viability (NCI-H3122; first compound 0.04 µM): 1.01 | relative viability (NCI-H3122; first compound 0.1265 µM): 0.922 | relative viability (NCI-H3122; first compound 0.4 µM): 1.05 | relative viability (NCI-H3122; first compound 4 µM): 0.733 | relative viability (NCI-H596; first compound 0.04 µM): 1.12 | relative viability (NCI-H596; first compound 0.1265 µM): 1.1 | relative viability (NCI-H596; first compound 0.4 µM): 1.1 | relative viability (NCI-H596; first compound 4 µM): 1.06 | relative viability (LXF-289; first compound 0.04 µM): 1.05 | relative viability (LXF-289; first compound 0.1265 µM): 1.12 | relative viability (LXF-289; first compound 0.4 µM): 1.19 | relative viability (LXF-289; first compound 4 µM): 1.04 | relative viability (NCI-H1355; first compound 0.04 µM): 0.799 | relative viability (NCI-H1355; first compound 0.1265 µM): 0.682 | relative viability (NCI-H1355; first compound 0.4 µM): 0.671 | relative viability (NCI-H1355; first compound 4 µM): 0.62 | relative viability (NCI-H2170; first compound 0.04 µM): 0.95 | relative viability (NCI-H2170; first compound 0.1265 µM): 0.807 | relative viability (NCI-H2170; first compound 0.4 µM): 0.812 | relative viability (NCI-H2170; first compound 4 µM): 0.633 | relative viability (NCI-H1915; first compound 0.04 µM): 0.575 | relative viability (NCI-H1915; first compound 0.1265 µM): 0.727 | relative viability (NCI-H1915; first compound 0.4 µM): 0.735 | relative viability (NCI-H1915; first compound 4 µM): 0.515 | relative viability (NCI-H460; first compound 0.04 µM): 0.617 | relative viability (NCI-H460; first compound 0.1265 µM): 0.638 | relative viability (NCI-H460; first compound 0.4 µM): 0.63 | relative viability (NCI-H460; first compound 4 µM): 0.368 | relative viability (LCLC-103H; first compound 0.04 µM): 0.798 | relative viability (LCLC-103H; first compound 0.1265 µM): 0.755 | relative viability (LCLC-103H; first compound 0.4 µM): 0.761 | relative viability (LCLC-103H; first compound 4 µM): 0.631 | relative viability (NCI-H522; first compound 0.04 µM): 0.526 | relative viability (NCI-H522; first compound 0.1265 µM): 0.743 | relative viability (NCI-H522; first compound 0.4 µM): 0.908 | relative viability (NCI-H522; first compound 4 µM): 0.814
